For one data set, the species on record is Homo sapiens. In words: Influence on the doubling of activated partial human thromboplastin time(APTT). It counts as functional.
The target in another data set is Prothrombin (Homo sapiens, UniProt P00734). In words: In vitro inhibition of human thrombin.
A short description of data set [1]: Bioavailability in rat after p.o. administration at a dose of 30 mg/kg. The settings on record: in vivo, po. Type of data set: ADME, organism-based.

pKi: −log10 of the molar value.

`CN(C)C[C@H](Cc1ccccc1)Nc1ccncc1S(=O)(=O)N[C@@H](Cc1ccccc1)C(=O)N1CCC(CCF)CC1` (stereo in doubt; 64) [listing 1 of 2 here] returned an Activity in the data set listed under Homo sapiens of 9.6 µM. One may read the pKi as the Ki on a negative log10 scale, so that one unit is a factor of ten. A higher pKi goes with a low Ki. For the compound `CN(C)C[C@H](Cc1ccccc1)Nc1ccncc1S(=O)(=O)N[C@@H](Cc1ccccc1)C(=O)N1CCC(CCF)CC1` (stereo in doubt; 64) [listing 2 of 2 here], the pKi at Prothrombin was 6.89. Regarding `Nc1ccc(C[C@H](NS(=O)(=O)c2cnccc2N[C@@H](Cc2ccccc2)CN2CCOCC2)C(=O)N2CCC(CCF)CC2)cc1`, the Activity in the data set filed under Homo sapiens worked out at 2.9 µM.

Regarding `O=C([C@H](Cc1ccccc1)NS(=O)(=O)c1cnccc1N[C@@H](Cc1ccccc1)CN1CCC(O)CC1)N1CCC(CCF)CC1`, the pKi at Prothrombin is 7.21.

At Prothrombin, `CCC1CCN(C(=O)[C@H](Cc2ccc(N)cc2)NS(=O)(=O)c2cnccc2N[C@H](COCCO)Cc2ccccc2)CC1` (stereo in doubt; 16) had a negative logarithm of the Ki (pKi) of 6.83. Regarding `COc1ccc(C[C@@H](CO)Nc2ccncc2S(=O)(=O)N[C@@H](Cc2ccccc2)C(=O)N2CCC(CCF)CC2)cc1`, on Prothrombin, the pKi is 7.07. The bioavailability is dose-corrected exposure relative to a reference, in per cent. Higher therefore signals good availability. Take `CCC1CCN(C(=O)[C@H](Cc2ccc(N)cc2)NS(=O)(=O)c2cnccc2N[C@H](COCCO)Cc2ccccc2)CC1` (stereo in doubt; 62) [listing 1 of 2 here]: in data set [1], the bioavailability came out at 55%. The pKi at Prothrombin was 6.83. As to `CN(C)C[C@H](Cc1ccccc1)Nc1ccncc1S(=O)(=O)N[C@@H](Cc1ccccc1)C(=O)N1CCC(CCF)CC1` (stereo in doubt; 8), the pKi on Prothrombin was 6.89. Turning to `O=C([C@H](Cc1ccccc1)NS(=O)(=O)c1cnccc1N[C@H](COCCO)Cc1ccccc1)N1CCC(CCF)CC1`, the negative-log Ki (pKi) on Prothrombin was 6.66. In turn, `O=C([C@H](Cc1ccc(O)cc1)NS(=O)(=O)c1cnccc1N[C@H](COCCO)Cc1ccccc1)N1CCC(CCCl)CC1` gave a pKi at Prothrombin of 7.55. The compound also gave an Activity in the data set filed under Homo sapiens of 4.4 µM. As for `CCC1CCN(C(=O)[C@H](Cc2ccc(N)cc2)NS(=O)(=O)c2cnccc2N[C@H](CO)Cc2ccc(OC)cc2)CC1`, the negative-log Ki (pKi) on Prothrombin is 7.40. Consider `CCC1CCN(C(=O)[C@H](Cc2ccc(N)cc2)NS(=O)(=O)c2cnccc2N[C@H](COCCO)Cc2ccccc2)CC1` (stereo in doubt; 62) [listing 2 of 2 here], for which the Activity in the data set listed under Homo sapiens is 5 µM.

Turning to `CCC1CCN(C(=O)[C@H](Cc2ccc(N)cc2)NS(=O)(=O)c2cnccc2N[C@@H](Cc2ccccc2)CN2CCOCC2)CC1`, at Prothrombin, the negative logarithm of the Ki (pKi) is 7.21.
